Test [1] concerns the target T1, AtBBE-like 15 (Arabidopsis thaliana, UniProt O64743).
T1 construct: gene MEE23; secreted by Komagataella pastoris (codon-optimised synthetic gene); crystallised as 27-532; bicovalent FAD (His-115, Cys-179)
Put plainly: Thermofluor, SYPRO Orange. The format is binding. Conditions: 50 mM MES pH 7.0, 2 mg/ml ligand.

Test [2] deals with T1, AtBBE-like 15. In words: X-ray crystal structure, […] Å. The format is binding. The note with it: covalent (bicovalent: His-115 to 8α-methyl, Cys-179 to C6).
Test [3] concerns the target T1, AtBBE-like 15. In words: stopped-flow reductive half-reaction, flavin absorbance at […] nm. The format is biochemical. The note with it: 50 mM potassium phosphate pH 7.0, 25 °C, anoxic.
The target of a further test is T2, AtBBE-like 13 (Arabidopsis thaliana, UniProt Q93ZA3).
T2 construct: gene At1g30760; isolated from Komagataella pastoris cells (codon-optimised synthetic gene)
Described as above. The note with it: 50 mM potassium phosphate pH 7.0, 25 °C, anoxic. Type of test: biochemical.

Here are results for 4 molecules from PMC4513132, “Oxidation of Monolignols by Members of the Berberine Bridge Enzyme Family Suggests a Role in Plant Cell Wall Metabolism” (The Journal of Biological Chemistry, 2015).

T1 sequence (O64743 27-532): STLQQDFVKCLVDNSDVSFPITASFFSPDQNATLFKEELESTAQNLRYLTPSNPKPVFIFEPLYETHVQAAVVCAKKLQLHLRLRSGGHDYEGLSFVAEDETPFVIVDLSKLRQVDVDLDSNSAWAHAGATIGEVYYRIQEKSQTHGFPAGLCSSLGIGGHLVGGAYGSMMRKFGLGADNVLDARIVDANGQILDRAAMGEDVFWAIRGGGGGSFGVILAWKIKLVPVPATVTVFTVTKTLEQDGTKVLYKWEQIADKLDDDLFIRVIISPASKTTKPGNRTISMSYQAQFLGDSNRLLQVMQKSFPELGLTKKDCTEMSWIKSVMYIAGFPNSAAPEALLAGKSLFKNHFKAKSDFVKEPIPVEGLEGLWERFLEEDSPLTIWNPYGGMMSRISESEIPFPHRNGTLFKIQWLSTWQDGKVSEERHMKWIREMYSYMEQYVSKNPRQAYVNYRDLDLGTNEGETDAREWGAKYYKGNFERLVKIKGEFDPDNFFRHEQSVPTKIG
T2 sequence (Q93ZA3 31-534): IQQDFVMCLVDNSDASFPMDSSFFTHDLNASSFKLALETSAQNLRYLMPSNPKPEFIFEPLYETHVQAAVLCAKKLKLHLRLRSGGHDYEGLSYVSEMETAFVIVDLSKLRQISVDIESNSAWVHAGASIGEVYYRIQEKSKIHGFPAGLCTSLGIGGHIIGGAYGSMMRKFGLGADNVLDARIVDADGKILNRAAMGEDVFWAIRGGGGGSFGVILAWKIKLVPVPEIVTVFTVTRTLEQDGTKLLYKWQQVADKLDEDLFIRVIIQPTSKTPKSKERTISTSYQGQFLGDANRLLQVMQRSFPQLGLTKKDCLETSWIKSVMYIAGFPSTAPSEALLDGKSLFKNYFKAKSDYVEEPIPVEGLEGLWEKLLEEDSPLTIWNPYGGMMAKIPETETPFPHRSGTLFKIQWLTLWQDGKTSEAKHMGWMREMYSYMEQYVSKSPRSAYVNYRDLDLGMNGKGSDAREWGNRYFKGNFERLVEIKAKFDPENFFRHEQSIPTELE

As for `OC[C@H]1OC(O)[C@H](O)[C@@H](O)[C@@H]1O` (stereo partly drawn) [D-glucose], the “increase of the melting temperature” value on AtBBE-like 15 [1] was “monosaccharides, such as D-glucose, had such a profound effect on the protein's thermal stability”. As for `Cc1cc2nc3c(=O)[nH]c(=O)nc-3n(C[C@H](O)[C@H](O)[C@H](O)COP(=O)(O)OP(=O)(O)OC[C@H]3O[C@@H](n4cnc5c(N)ncnc54)[C@H](O)[C@@H]3O)c2cc1C` [FAD], at AtBBE-like 15 [2], the “X-ray crystal structure, 2.1 Å” value is “The FAD cofactor is bicovalently linked to the peptide chain”.

With `COc1cc(/C=C/CO)ccc1O[C@@H]1O[C@H](CO)[C@@H](O)[C@H](O)[C@H]1O` [coniferin], the Kd at AtBBE-like 15 [3] is 660 ± 100 µM; on AtBBE-like 13, 1860 ± 624 µM.

Turning to `OC/C=C/c1ccc(O)cc1` [p-coumaryl alcohol], the Kd was 700 ± 120 µM at AtBBE-like 15 [3] and 867 ± 123 µM on AtBBE-like 13.
